According to the supplement of paper PMC10307832:

What was measured:
Assay in all cases: relative viability (nuclei count vs DMSO), 5 days (fraction); higher = more cells survive
BAY61-3606 + Pemetrexed = compound: COC1=C(C=C(C=C1)C2=CC3=NC=CN3C(=N2)NC4=C(C=CC=N4)C(=O)N)OC [BAY61-3606] + Nc1nc2[nH]cc(CCc3ccc(C(=O)N[C@@H](CCC(=O)O)C(=O)O)cc3)c2c(=O)[nH]1 [Pemetrexed] (partner 0.2 µM)
In short: (§1)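 Dosing by pin tool came one day after lung cancer cell lines were seeded in 1536-well plates, using either one drug or a fixed anchor-drug dose plus five library-drug doses (not always all listed) in √10 steps. After 5 days, nuclei were counted on 4× images. Relative viability is treated-well nuclei count divided by vehicle-well nuclei count, and values are medians of duplicate plates.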

BAY61-3606 + Luminespib = compound: COC1=C(C=C(C=C1)C2=CC3=NC=CN3C(=N2)NC4=C(C=CC=N4)C(=O)N)OC [BAY61-3606] + CCNC(=O)c1noc(-c2cc(C(C)C)c(O)cc2O)c1-c1ccc(CN2CCOCC2)cc1 [Luminespib] (partner 0.01 µM)
In short: as §1

Doxorubicin + OSI-027 = compound: COc1cccc2c1C(=O)c1c(O)c3c(c(O)c1C2=O)C[C@@](O)(C(=O)CO)C[C@@H]3O[C@H]1C[C@H](N)[C@H](O)[C@H](C)O1 [Doxorubicin] + COc1cccc2cc(-c3nc([C@H]4CC[C@H](C(=O)O)CC4)n4ncnc(N)c34)[nH]c12 [OSI-027] (partner 0.5 µM)
In short: as §1

BAY61-3606 + Crizotinib = compound: COC1=C(C=C(C=C1)C2=CC3=NC=CN3C(=N2)NC4=C(C=CC=N4)C(=O)N)OC [BAY61-3606] + C[C@@H](Oc1cc(-c2cnn(C3CCNCC3)c2)cnc1N)c1c(Cl)ccc(F)c1Cl [Crizotinib] (partner 1 µM)
In short: as §1

Row | Cell Line | relative viability (BAY61-3606 + Pemetrexed; first compound 0.02 µM) | relative viability (BAY61-3606 + Pemetrexed; first compound 0.06325 µM) | relative viability (BAY61-3606 + Pemetrexed; first compound 0.2 µM) | relative viability (BAY61-3606 + Pemetrexed; first compound 0.6325 µM) | relative viability (BAY61-3606 + Pemetrexed; first compound 2 µM) | relative viability (BAY61-3606 + Luminespib; first compound 0.02 µM) | relative viability (BAY61-3606 + Luminespib; first compound 0.06325 µM) | relative viability (BAY61-3606 + Luminespib; first compound 0.2 µM) | relative viability (BAY61-3606 + Luminespib; first compound 0.6325 µM) | relative viability (BAY61-3606 + Luminespib; first compound 2 µM) | relative viability (Doxorubicin + OSI-027; first compound 0.001 µM) | relative viability (Doxorubicin + OSI-027; first compound 0.003162 µM) | relative viability (Doxorubicin + OSI-027; first compound 0.01 µM) | relative viability (Doxorubicin + OSI-027; first compound 0.03162 µM) | relative viability (Doxorubicin + OSI-027; first compound 0.1 µM) | relative viability (BAY61-3606 + Crizotinib; first compound 0.02 µM) | relative viability (BAY61-3606 + Crizotinib; first compound 0.06325 µM) | relative viability (BAY61-3606 + Crizotinib; first compound 0.2 µM) | relative viability (BAY61-3606 + Crizotinib; first compound 0.6325 µM) | relative viability (BAY61-3606 + Crizotinib; first compound 2 µM)
1 | NCI-H2023 | 0.263 | 0.257 | 0.212 | 0.246 | 0.157 | 0.885 | 0.614 | 0.669 | 0.778 | 0.535 | 0.347 | 0.363 | 0.314 | 0.142 | 0.0903 | 0.713 | 0.61 | 0.703 | 0.751 | 0.53
2 | 201T | 0.358 | 0.366 | 0.339 | 0.325 | 0.32 | 1.11 | 1.03 | 1.04 | 1.16 | 1.05 | 0.494 | 0.838 | 0.724 | 0.638 | 0.274 | 1.1 | 0.996 | 1.01 | 1.02 | 1.03
3 | NCI-H2405 | 1.09 | 1.08 | 1.01 | 1.01 | 0.82 | 0.736 | 0.569 | 0.716 | 0.739 | 0.485 | 0.607 | 0.645 | 0.654 | 0.629 | 0.509 | 0.856 | 0.787 | 0.764 | 0.849 | 0.661
4 | LU99A | 0.175 | 0.149 | 0.193 | 0.171 | 0.166 | 0.347 | 0.256 | 0.407 | 0.248 | 0.209 | 0.353 | 0.338 | 0.302 | 0.273 | 0.315 | 0.562 | 0.468 | 0.555 | 0.484 | 0.305
5 | LC-2-ad | 0.289 | 0.267 | 0.261 | 0.289 | 0.267 | 1.2 | 0.98 | 1.1 | 0.963 | 0.646 | 0.629 | 0.691 | 0.587 | 0.386 | 0.292 |  | 0.384 | 0.447 | 0.406 | 0.348
6 | NCI-H2087 | 0.578 | 0.685 | 0.682 | 0.625 | 0.588 | 0.188 | 0.132 | 0.181 | 0.196 | 0.139 |  | 0.702 | 0.414 | 0.403 | 0.269 | 0.585 | 0.931 | 0.818 | 0.863 | 0.619
7 | COR-L23 | 0.198 | 0.203 | 0.2 | 0.202 | 0.195 | 0.672 | 0.728 | 0.674 | 0.806 | 0.372 | 0.753 | 0.912 | 0.741 | 0.452 | 0.193 | 0.697 | 0.67 | 0.527 | 0.667 | 0.509
8 | BEN | 0.959 | 0.627 | 0.727 | 0.748 | 0.724 | 0.464 | 0.349 | 0.253 | 0.321 | 0.407 | 0.301 | 0.28 | 0.335 | 0.301 | 0.29 | 0.88 | 0.748 | 1.1 | 1.06 | 0.84
9 | ChaGo-K-1 | 0.265 | 0.268 | 0.253 | 0.265 | 0.253 | 0.611 | 0.606 | 0.587 | 0.554 | 0.436 | 0.587 | 0.588 | 0.63 | 0.439 | 0.398 | 1.09 | 0.832 | 1.06 | 1.14 | 1.05
10 | LK-2 | 0.245 | 0.232 | 0.384 | 0.288 | 0.252 | 0.168 | 0.163 | 0.185 | 0.185 | 0.208 | 0.175 | 0.191 | 0.244 | 0.187 | 0.199 | 0.227 | 0.216 | 0.228 | 0.202 | 0.201
11 | NCI-H520 | 0.75 | 0.782 | 0.768 | 0.684 | 0.467 | 0.216 | 0.237 | 0.258 | 0.231 | 0.223 | 0.249 | 0.274 | 0.233 | 0.193 | 0.202 | 0.881 | 0.782 | 0.871 | 0.948 | 0.593
12 | NCI-H661 | 0.963 | 1.01 | 0.84 | 0.931 | 0.703 | 0.902 | 0.917 | 0.867 | 0.879 | 0.823 | 0.829 | 0.639 | 0.625 | 0.46 | 0.291 | 0.914 | 0.806 |  | 0.984 | 0.957
13 | NCI-H2009 | 1 | 1.01 | 1.02 | 0.918 | 0.91 | 1.08 | 1.04 | 0.976 | 0.992 | 0.902 | 0.634 | 0.687 | 0.568 | 0.632 | 0.402 | 1.06 | 1.12 | 1.01 | 1.08 | 0.921
14 | NCI-H1993 | 0.642 | 0.564 | 0.541 | 0.57 | 0.461 | 0.947 | 0.736 | 0.873 | 0.901 | 0.527 | 0.591 | 0.58 | 0.542 | 0.515 | 0.498 | 0.949 | 0.87 | 0.807 | 0.827 | 0.636
